The source of these data is US20090281152A1, “Indole Compounds Having Affinity to the EP1 Receptor” (priority 2006, published 2009).

Assay [1] concerns the target T1, human EP3 receptor (Homo sapiens, UniProt P43115).
T1 construct: expressed in transfected cells; host or cells: CHO-K1 cells, pCIN vector
T1 sequence (P43115 1-390): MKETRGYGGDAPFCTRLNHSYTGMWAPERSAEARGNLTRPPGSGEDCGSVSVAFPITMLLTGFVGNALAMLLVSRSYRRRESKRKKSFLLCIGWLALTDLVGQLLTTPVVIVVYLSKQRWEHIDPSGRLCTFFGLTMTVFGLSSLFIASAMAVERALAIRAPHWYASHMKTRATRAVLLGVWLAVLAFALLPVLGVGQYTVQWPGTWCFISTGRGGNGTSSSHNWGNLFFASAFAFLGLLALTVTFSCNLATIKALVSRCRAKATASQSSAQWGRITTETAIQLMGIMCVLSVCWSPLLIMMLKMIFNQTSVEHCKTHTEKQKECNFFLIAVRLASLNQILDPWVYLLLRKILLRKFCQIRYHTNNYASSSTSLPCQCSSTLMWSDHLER
Nature of the assay: human EP3 calcium mobilisation assay (FLIPR, CHO-K1 cells). It counts as cell-based. Particulars: antagonism of PGE2-induced calcium mobilisation, averages of a number of experiments, read-out: functional pKi (converted). The procedure:
Briefly, the antagonist properties of compounds are assessed by their ability to inhibit the mobilisation of intracellular calcium ([Ca^2+]i) in response to activation of EP1 or EP3 receptors by the natural agonist hormone prostaglandin E2 (PGE2). Increasing concentrations of antagonist reduce the amount of calcium that a given concentration of PGE2 can mobilise. The net effect is to displace the PGE2 concentration-effect curve to higher concentrations of PGE2. The amount of calcium produced is assessed using a calcium-sensitive fluorescent dye such as Fluo-4, AM and a suitable instrument such as a Fluorimetric Imaging Plate Reader (FLIPR). Increasing amounts of [Ca^2+]i produced by receptor activation increase the amount of fluorescence produced by the dye and give rise to an increasing signal. The signal may be detected using the FLIPR instrument and the data generated may be analysed with suitable curve-fitting software.
The human EP1 or EP3 calcium mobilisation assay (hereafter referred to as ‘the calcium assay’) utilises Chinese hamster ovary-K1 (CHO-K1) cells into which a stable (pCIN; BioTechniques 20 (1996): 102-110) vector containing either EP1 or EP3 cDNA has previously been transfected. Cells are cultured in suitable flasks containing culture medium such as DMEM:F-12 supplemented with 10% v/v foetal calf serum, 2 mM L-glutamine, 0.25 mg/ml geneticin, 100 μM flurbiprofen and 10 μg/ml puromycin.
For assay, cells are harvested using a proprietary reagent that dislodges cells such as Versene. Cells are re-suspended in a suitable quantity of fresh culture media for introduction into a 384-well plate. Following incubation for 24 hours at 37° C. the culture media is replaced with a medium containing Fluo-4 and the detergent pluronic acid, and a further incubation takes place. Concentrations of compounds are then added to the plate in order to construct concentration-effect curves. This may be performed on the FLIPR in order to assess the agonist properties of the compounds. […]
The data so generated may be analysed by means of a computerised curve-fitting routine. […]
For orientation: Calcium assays in cells follow changes in intracellular calcium, usually with a dye or a luminescent sensor.

Assay [2] has as its system rat model of chronic constriction injury. The following applies: Anesthesia and Analgesia 2001, 93, 1012-7; cited from earlier work.
Assay [3] has as its system rodent model of post-operative pain. The following applies: Anesthesia and Analgesia 2001, 92, 233-238; cited from earlier work.

Consider `CC(C)Cn1cc(-c2nc(C(=O)O)cs2)c2cc(Cl)ccc21` [Example 7, 2-[5-Chloro-1-(2-methylpropyl)-1H-indol-3-yl]-1,3-thiazole-4-carboxylic acid], for which, in assay [1], the Ki is no less than 1 µM.

For `CC(C)Cn1cc(-c2nc(C(=O)O)co2)c2cc(Cl)ccc21` [Example 8, 2-[5-Chloro-1-(2-methylpropyl)-1H-indol-3-yl]-1,3-oxazole-4-carboxylic acid], the Ki in assay [1] is no less than 1 µM.

Take `Cc1ccc2c(c1)c(-c1nc(C(=O)NS(=O)(=O)c3ccccc3)co1)cn2CC(C)C` [Example 10, 2-[5-Methyl-1-(2-methylpropyl)-1H-indol-3-yl]-N-(phenylsulfonyl)-1,3-oxazole-4-carboxamide]: the Ki in assay [1] is greater than 0.316 µM.

`Cc1cc(Cl)ccc1S(=O)(=O)NC[C@H]1C2CCC(CC2)[C@@H]1/C=C\CCCC(=O)O` [ONO-8711]: the hyperalgesia and allodynia entry in assay [2] was “reduces hyperalgesia and allodynia”. For the same molecule, the mechanical hyperalgesia result in assay [3] is reported as “inhibits mechanical hyperalgesia”.
